From US20080207617A1, “Quinoline Derivatives and Quinazoline Derivatives Inhibiting Autophosphrylation of Flt3 and Medicinal Compositions Containing the Same” (KIRIN BEER KABUSHIKI KAISHA, priority 2002, published 2008)
pIC50: −log10 of the molar value. Counter-ions that a name gives are not always drawn.

Assays:
[1] = target: T1, FLT3 (Homo sapiens, UniProt P36888); experiment: Inhibitory activity against FLT3 autophosphorylation using ELISA method; format: cell-based; conditions: MV4-11 cells, 1 hr with compound, read-out: IC50 of FLT3-phosphorylation
T1 sequence (P36888 with tags, fused parts or gaps INS600HVDFREYEYD): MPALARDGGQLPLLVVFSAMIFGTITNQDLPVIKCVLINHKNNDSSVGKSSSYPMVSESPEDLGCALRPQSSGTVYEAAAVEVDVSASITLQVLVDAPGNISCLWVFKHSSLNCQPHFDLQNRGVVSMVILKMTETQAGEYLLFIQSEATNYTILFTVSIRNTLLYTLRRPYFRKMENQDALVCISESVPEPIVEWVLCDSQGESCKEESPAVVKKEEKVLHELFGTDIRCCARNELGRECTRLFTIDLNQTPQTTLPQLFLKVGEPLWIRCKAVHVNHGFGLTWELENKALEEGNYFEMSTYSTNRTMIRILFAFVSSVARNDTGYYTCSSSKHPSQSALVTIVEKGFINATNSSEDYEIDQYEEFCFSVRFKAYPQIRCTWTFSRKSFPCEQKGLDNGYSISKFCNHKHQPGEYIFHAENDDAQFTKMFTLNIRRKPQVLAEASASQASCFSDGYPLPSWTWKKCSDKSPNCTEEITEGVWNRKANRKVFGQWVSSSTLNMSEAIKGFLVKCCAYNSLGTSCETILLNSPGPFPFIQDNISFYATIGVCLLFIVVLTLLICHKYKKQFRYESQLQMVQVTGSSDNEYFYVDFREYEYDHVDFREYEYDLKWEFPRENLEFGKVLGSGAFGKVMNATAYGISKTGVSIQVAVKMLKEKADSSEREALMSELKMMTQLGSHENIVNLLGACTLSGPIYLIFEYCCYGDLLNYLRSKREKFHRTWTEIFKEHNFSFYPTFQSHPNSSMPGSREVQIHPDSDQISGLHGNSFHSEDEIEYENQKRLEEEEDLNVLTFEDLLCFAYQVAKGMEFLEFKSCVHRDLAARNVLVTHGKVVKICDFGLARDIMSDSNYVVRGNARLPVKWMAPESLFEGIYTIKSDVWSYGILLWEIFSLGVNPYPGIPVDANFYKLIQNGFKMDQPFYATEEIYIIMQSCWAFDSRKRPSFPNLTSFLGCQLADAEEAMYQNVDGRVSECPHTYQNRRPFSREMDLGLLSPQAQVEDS
Method: Pharmacological Test Example 1
Measurement of Inhibitory Activity Against FLT3 Autophosphorylation Using ELISA Method
Human leukemia cells MV4-11 (ATCC number: CRL-9591) were cultured in an IMDM medium containing 10% fetal calf serum (purchased from SIGMA) within a 5% carbon dioxide incubator until 50 to 90% confluent. The harvested cells were seeded into 96-wells, plates, containing an IMDM medium containing 0.1% fetal calf serum, in a 96-well multiscreen plate in an amount of 5.0×10^5 per well, a solution of the test compound in dimethyl sulfoxide was added to each well, and the cultivation was continued at 37° C. for one hr. The medium was removed, followed by washing with phosphate buffered saline. A lysis buffer (60 μl) (20 mM HEPES (pH 7.4), 150 mM NaCl, 0.2% Triton X-100, 10% glycerol, 5 mM sodium orthovanadylate, 5 mM disodium ethylenediaminetetraacetate, and 2 mM Na4P2O7) was then added thereto. The mixture was shaken at 4° C. for 2 hr to prepare a cell extracts.
Separately, phosphate buffered saline (50 μl, pH 7.4) containing 5 μg/ml of anti-phospho-tyrosine antibody (PY20; purchased from Transduction Laboratories) was added to a 96-well microplate for ELISA (Maxisorp; purchased from NUNC), followed by standing at 4° C. overnight to form a solid phase on the wells. After washing of the plate, 250 μl of a blocking solution was added, followed by standing at room temperature for 3 hr to perform blocking. After washing, the whole quantity of the cell extract was transferred to the wells, and the plate was then allowed to stand at 4° C. overnight. After washing, an anti-FLT3 antibody (Flt3/Flk2 (C-20), purchased from Santa Cruz Biotechnology) was allowed to react at room temperature for 2 hr, and, after washing, a peroxidase-labeled anti-rabbit Ig antibody (purchased from Amersham) was allowed to react at room temperature for one hr. After washing, a chromophoric substrate for peroxidase (purchased from Sumitomo Bakelite Co., Ltd.) was added thereto to initiate a reaction. After a suitable level of color development, a reaction termination solution was added to stop the reaction, and the absorbance at 450 nm was measured with a microplate reader. The FLT3-phosphorylation activity for each well was determined by presuming the absorbance without the addition of the medicament to be 100% FLT3-phosphorylation activity and the absorbance with the addition of a large excess of a positive control (Compound 1, 10 μM) to be 0% FLT3-phosphorylation activity. The concentration of the test compound was varied on several levels, the FLT3-phosphorylation inhibitory activity was determined for each case, and the concentration of the test compound necessary for inhibiting 50% of FLT3-phosphorylation (IC50) was calculated.

[2] = tested on: MOLM13; experiment: Cell growth inhibitory activities on cultured human leukemia cells MOLM-13 (WST-1); format: cell-based; conditions: Homo sapiens, MOLM-13, 72 h, 3 days culture
[3] = tested on: MV4-11; experiment: Cell growth inhibitory test MV4-11 (WST-1); format: cell-based, human; conditions: Homo sapiens, MV4-11, 72 h, MV4-11 cells, 3 days culture
How it was run: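 MV4-11 leukemia cells (3×10^3/well, DMEM + 10% FCS) were cultured 3 days with compound in DMSO at 5% CO2. Growth read by WST-1 absorbance at 450 nm (ref 650 nm), normalized to untreated (100%) and cell-free (0%) wells; IC50 from multiple concentrations.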

Row | Compound | pIC50 [1] | IC50 [2] [nM] | pIC50 [3]
1 | COc1cc2nccc(Oc3ccc(NC(=O)NCCC(C)(C)C)cc3C)c2cc1OC [Compound 3, 1-[4-(6,7-Dimethoxy-quinolin-4-yloxy)-3-methyl-phenyl]-3-(3,3-dimethyl-butyl)-urea] | 8.15 | 3 | 8.70
2 | COc1cc2c(Oc3ccc(NC(=O)NCCC(C)(C)C)cc3)ccnc2cc1OCCN1CCCCC1 [Compound 40, 1-{4-[6-Methoxy-7-(2-piperidin-1-yl-ethoxy)-quinolin-4-yloxy]-phenyl}-3-(3,3-dimethyl-butyl)-urea hydrochloride] | 7.03 | 2 | 9.00
